In US20110039860A1, “SOLUBLE EPOXIDE HYDROLASE INHIBITORS, COMPOSITIONS CONTAINING SUCH COMPOUNDS AND METHODS OF TREATMENT” (priority 2008, published 2011):

Target: T1, human sEH enzyme (Homo sapiens, UniProt P34913)
T1 construct: His-tag (pET100 vector) (N, cleaved yes); made in house; host or cells: E. coli
T1 sequence (P34913 1-555): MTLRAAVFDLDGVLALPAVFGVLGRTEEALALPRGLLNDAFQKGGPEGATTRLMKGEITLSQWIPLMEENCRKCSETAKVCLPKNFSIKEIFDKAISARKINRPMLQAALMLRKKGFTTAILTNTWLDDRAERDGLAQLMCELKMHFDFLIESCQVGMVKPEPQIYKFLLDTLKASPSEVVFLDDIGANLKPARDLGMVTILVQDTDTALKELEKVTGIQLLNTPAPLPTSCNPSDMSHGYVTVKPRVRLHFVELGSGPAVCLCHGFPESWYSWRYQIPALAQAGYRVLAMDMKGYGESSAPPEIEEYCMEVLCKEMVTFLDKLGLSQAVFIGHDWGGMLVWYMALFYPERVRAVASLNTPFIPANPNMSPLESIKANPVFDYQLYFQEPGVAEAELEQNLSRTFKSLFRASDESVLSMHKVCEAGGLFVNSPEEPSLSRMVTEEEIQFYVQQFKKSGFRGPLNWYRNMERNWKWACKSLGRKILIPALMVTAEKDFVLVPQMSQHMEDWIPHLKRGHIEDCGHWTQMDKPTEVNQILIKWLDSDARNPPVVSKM
Test: sEH human enzyme assay (fluorescence based enzyme in vitro assay)
Type: biochemical
Conditions: recombinant human sEH about 1 nM, fluorescence substrate S7 10 uM, 25° C.; read-out: IC50 [nM] for human sEH enzyme inhibition
Text: Preparation of Recombinant sEH Human Enzyme
The DNA for expressing sEH was designed based on a […] sEH cDNA, modified to optimize for expression both in E. coli and insect cells. The designed DNA fragment encodes a protein sequence that is identical to full length human sEH, and the DNA was synthesized in vitro. The DNA was then subcloned into the pET100 vector that will generate a fusion protein with an N-terminal His-tag. The recombinant protein was expressed in E. coli. The sEH enzyme was affinity purified by a Ni^++ column. His-tag was removed by Enter Kinase (EK) digestion. The purified enzyme aliquots were frozen and held at −80° C. for later use. Fluorescence Based Enzyme in vitro Assay For each assay (100 ul), an aliquot of enzymes (about 1 nM final concentration) was incubated with a fluorescence substrate, S7 (10 uM final concentration), in sEH assay buffer (25 mM HEPES, […], 0.1 mg/ml BSA) in a 96-well plate. The kinetic reaction reading (Ex330/Em465) was conducted using a plate reader, Spectra max (Molecular Devices) at 25° C.

| Structure (SMILES) | IC50 |
| --- | --- |
| O=C(O)[C@H]1CC[C@H](CCNc2ccc(-c3c(F)cccc3C(F)(F)F)cn2)CC1 [Compound I-2] | 19 nM |
| Fc1cccc(Cl)c1CCNc1ccc(-c2c(F)cccc2C(F)(F)F)cn1 [Compound I-5] | 2 nM |
| O=C(c1ccccc1C(F)(F)F)N1CCC(CNc2ccc(-c3ccccc3C(F)(F)F)cn2)CC1 [Compound I-6] | 3 nM |
| FC(F)(F)c1ccccc1-c1ccc(NCc2ccccc2)nc1 [Compound I-8] | 25 nM |
| FC(F)(F)c1ccccc1-c1ccc(NCCC(c2ccccc2)c2ccccc2)nc1 [Compound I-9] | 832 nM |
| FC(F)(F)c1ccccc1-c1ccc(NCc2cccc3ccccc23)nc1 [Compound I-10] | 31 nM |
| FC(F)(F)Oc1cccc(CNc2ccc(-c3ccccc3C(F)(F)F)cn2)c1 [Compound I-12] | 52 nM |
| O=S(=O)(c1ccccc1C(F)(F)F)N1CCC(CNc2ccc(-c3ccccc3C(F)(F)F)cn2)CC1 [Compound I-13] | 18 nM |
| O=C(N[C@H]1CC[C@H](CNc2ccc(-c3ccccc3C(F)(F)F)cn2)CC1)c1ccccc1C(F)(F)F [Compound I-14] | 7 nM |
| FC(F)(F)c1ccccc1-c1ccc(NCc2cccnc2)nc1 [Compound I-19] | 92 nM |
| Fc1cccc(C(F)(F)F)c1-c1ccc(NCCc2c[nH]cn2)nc1 [Compound I-20] | 67 nM |
| FC(F)(F)c1ccccc1-c1ccc(NCCc2c[nH]cn2)nc1 [Compound I-21] | 100 nM |
| O=C(O)C12CCC(CNc3ccc(-c4c(F)cccc4C(F)(F)F)cn3)(CC1)C2 [Compound I-22] | 130 nM |
| FC(F)(F)c1ccccc1-c1ccc(NCCN2CCN(c3cccc(Cl)c3)CC2)nc1 [Compound I-23] | 7 nM |
| FC(F)(F)c1ccccc1-c1ccc(NC2CCOCC2)nc1 [Compound I-24] | 200 nM |
| FC(F)(F)c1ccnc(N2CCN(CCNc3ccc(-c4ccccc4C(F)(F)F)cn3)CC2)n1 [Compound I-25] | 26 nM |
| O=C(O)C1CCN(C(=O)c2ccc(-c3ccc(NCCc4c(F)cccc4Cl)nc3)c(C(F)(F)F)c2)CC1 [II-1, 1-[4-(6-{[2-(2-chloro-6-fluorophenyl)ethyl]amino}pyridin-3-yl)-3-(trifluoromethyl)benzoyl]piperidine-4-carboxylic acid] | 200 nM |

Further lines, results first:

| IC50 | Structure (SMILES) |
| --- | --- |
| 1 nM | Fc1cccc(C(F)(F)F)c1-c1ccc(NCC2CCCCC2)nc1 [Compound I-1, N-(cyclohexylmethyl)-5-[2-fluoro-6-(trifluoromethyl)phenyl]pyridin-2-amine] |
| 9 nM | O=C(c1cccnc1)N1CCC(CNc2ccc(-c3ccccc3C(F)(F)F)cn2)CC1 [Compound I-4] |
| 32 nM | FC(F)(F)c1cccnc1-c1ccc(NCC2CCCCC2)nc1 [Compound I-7] |
| 32 nM | Clc1ccccc1-c1ccc(NCC2CCCCC2)nc1 [Compound I-11] |
| 8 nM | CC(C)(C)OC(=O)N1CCC(CNc2ccc(-c3cnccc3C(F)(F)F)cn2)CC1 [Compound I-15] |
| 53 nM | FC(F)(F)c1cc(-c2nnn[nH]2)ccc1-c1ccc(NCC2CCCCC2)nc1 [Compound I-16] |
| 8 nM | FC(F)(F)c1ccccc1-c1ccc(NCC2CCCCC2)nn1 [Compound I-17] |
| 651 nM | FC(F)(F)c1ccccc1-c1cnc(NCC2CCCCC2)cn1 [Compound I-18] |
| 53 nM | FC(F)(F)c1ccccc1-c1ccc(NCC2CC2)nc1 [Compound I-26] |
| 66 nM | O=C(O)CCCOc1ccc(-c2ccc(NCC3CCCCC3)nc2)c(C(F)(F)F)c1 [II-2] |
| 5 nM | O=C(O)c1cccc(-c2ccc(-c3ccc(NCC4CCCCC4)nc3)c(C(F)(F)F)c2)c1 [II-3] |
| 4 nM | O=C(NCC1CCCCC1)c1ccc(-c2ccc(NCC3CCCCC3)nc2)c(C(F)(F)F)c1 [II-4] |
| 4 nM | NC(=O)c1ccc(-c2ccc(NCC3CCCCC3)nc2)c(C(F)(F)F)c1 [II-5] |
| 3 nM | FC(F)(F)c1cc(-c2cccnc2)nn1-c1ccc(NCC2CCCCC2)nc1 [III-1, N-(cyclohexylmethyl)-5-[3-pyridin-3-yl-5-(trifluoromethyl)-1H-pyrazol-1-yl]pyridin-2-amine] |
